Key:
[1] = biological target: T1, Alpha-1B adrenergic receptor (Rattus norvegicus, UniProt P15823); assay: DRUGMATRIX: Alpha-1B adrenergic receptor radioligand binding (ligand: prazosin); format: cell membranes, Wistar, Liver, Membrane; conditions: Not Active = under 50% inhibition at 10 µM
T1 sequence (P15823 whole entry): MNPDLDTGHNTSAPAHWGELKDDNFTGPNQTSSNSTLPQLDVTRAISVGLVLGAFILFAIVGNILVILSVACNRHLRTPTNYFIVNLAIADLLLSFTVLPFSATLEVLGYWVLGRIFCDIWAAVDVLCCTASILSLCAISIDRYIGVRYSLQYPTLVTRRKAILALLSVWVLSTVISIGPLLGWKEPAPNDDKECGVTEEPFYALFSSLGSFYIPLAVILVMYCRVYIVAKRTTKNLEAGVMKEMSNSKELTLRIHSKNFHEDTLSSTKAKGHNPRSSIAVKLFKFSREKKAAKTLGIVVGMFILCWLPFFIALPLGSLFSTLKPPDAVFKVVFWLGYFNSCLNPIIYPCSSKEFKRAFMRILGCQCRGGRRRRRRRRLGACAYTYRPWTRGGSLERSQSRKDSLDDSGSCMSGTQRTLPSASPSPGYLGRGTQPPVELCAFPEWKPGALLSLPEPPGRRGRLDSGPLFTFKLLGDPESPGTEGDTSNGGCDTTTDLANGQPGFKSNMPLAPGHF

Cannabinoid receptor 1 = Cannabinoid receptor 1 (Homo sapiens, UniProt P21554); format: cell membranes, Chem-1, Membrane; conditions: chem-1; note: in other assays of this panel Not Active means under 50% inhibition at 10 µM
Cannabinoid receptor 1, sequence (P21554 whole entry): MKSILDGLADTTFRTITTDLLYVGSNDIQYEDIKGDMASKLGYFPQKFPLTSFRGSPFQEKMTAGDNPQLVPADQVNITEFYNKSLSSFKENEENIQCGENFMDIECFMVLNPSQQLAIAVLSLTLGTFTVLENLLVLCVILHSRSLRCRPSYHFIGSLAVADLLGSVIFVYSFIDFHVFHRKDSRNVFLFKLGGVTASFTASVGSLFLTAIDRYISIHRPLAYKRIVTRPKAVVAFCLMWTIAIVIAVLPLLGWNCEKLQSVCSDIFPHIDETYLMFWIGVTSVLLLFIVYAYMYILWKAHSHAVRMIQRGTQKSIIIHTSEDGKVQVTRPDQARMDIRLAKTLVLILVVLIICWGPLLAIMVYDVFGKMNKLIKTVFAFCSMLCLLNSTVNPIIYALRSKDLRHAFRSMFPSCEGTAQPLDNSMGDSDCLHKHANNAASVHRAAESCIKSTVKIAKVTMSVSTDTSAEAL

[2] = biological target: T2, Alpha-2A adrenergic receptor (Homo sapiens, UniProt P08913); format: cell membranes, Sf9, Membrane; conditions: sf9; note: in other assays of this panel Not Active means under 50% inhibition at 10 µM
T2 sequence (P08913 whole entry): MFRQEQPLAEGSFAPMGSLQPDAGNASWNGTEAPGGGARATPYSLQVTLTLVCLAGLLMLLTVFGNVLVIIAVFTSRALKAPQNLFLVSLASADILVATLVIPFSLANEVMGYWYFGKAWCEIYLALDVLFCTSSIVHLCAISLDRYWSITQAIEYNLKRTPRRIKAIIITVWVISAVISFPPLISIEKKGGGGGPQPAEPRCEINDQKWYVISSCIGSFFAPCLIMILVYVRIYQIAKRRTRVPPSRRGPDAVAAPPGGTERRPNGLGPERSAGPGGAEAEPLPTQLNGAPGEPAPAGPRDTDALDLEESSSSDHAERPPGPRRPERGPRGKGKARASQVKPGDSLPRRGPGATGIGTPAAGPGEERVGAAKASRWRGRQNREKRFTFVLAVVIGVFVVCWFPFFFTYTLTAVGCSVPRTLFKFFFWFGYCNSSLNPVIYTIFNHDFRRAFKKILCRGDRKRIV

[3] = biological target: 5-hydroxytryptamine receptor 2B (Homo sapiens, UniProt P41595); format: cell membranes, CHO-K1, Membrane; note: in other assays of this panel Not Active means under 50% inhibition at 10 µM
5-hydroxytryptamine receptor 2B, sequence (P41595 whole entry): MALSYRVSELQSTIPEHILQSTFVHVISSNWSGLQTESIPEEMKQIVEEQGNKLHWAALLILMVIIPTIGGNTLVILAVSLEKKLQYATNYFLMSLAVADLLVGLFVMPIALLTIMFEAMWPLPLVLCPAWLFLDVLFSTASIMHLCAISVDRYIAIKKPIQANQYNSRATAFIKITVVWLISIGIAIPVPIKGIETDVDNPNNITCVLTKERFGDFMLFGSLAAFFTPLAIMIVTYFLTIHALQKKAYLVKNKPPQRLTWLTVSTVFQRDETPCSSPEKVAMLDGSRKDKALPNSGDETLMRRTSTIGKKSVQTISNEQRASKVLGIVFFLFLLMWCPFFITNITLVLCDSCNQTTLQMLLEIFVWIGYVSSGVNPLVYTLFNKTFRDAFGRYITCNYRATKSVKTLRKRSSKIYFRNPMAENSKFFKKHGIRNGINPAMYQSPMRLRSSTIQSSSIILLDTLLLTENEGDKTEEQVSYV

Melanocortin receptor 5 = Melanocortin receptor 5 (Homo sapiens, UniProt P33032); format: cell membranes, Membrane; conditions: hek293; note: in other assays of this panel Not Active means under 50% inhibition at 10 µM
Melanocortin receptor 5, sequence (P33032 whole entry): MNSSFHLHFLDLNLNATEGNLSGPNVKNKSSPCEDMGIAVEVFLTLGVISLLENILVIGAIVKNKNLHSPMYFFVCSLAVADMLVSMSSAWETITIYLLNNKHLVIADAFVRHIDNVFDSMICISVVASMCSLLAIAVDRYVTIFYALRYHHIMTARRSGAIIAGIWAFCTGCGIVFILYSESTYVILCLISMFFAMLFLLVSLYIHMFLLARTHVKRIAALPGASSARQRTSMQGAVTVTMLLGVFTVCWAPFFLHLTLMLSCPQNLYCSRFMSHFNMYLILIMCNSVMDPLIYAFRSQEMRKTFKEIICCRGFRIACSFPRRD

[4] = biological target: Beta-1 adrenergic receptor (Homo sapiens, UniProt P08588); assay: DRUGMATRIX: Adrenergic beta1 radioligand binding (ligand: [125I] Cyanopindolol); format: cell membranes, CHO-K1, Membrane; conditions: cho-k1; Not Active = under 50% inhibition at 10 µM
Beta-1 adrenergic receptor, sequence (P08588 whole entry): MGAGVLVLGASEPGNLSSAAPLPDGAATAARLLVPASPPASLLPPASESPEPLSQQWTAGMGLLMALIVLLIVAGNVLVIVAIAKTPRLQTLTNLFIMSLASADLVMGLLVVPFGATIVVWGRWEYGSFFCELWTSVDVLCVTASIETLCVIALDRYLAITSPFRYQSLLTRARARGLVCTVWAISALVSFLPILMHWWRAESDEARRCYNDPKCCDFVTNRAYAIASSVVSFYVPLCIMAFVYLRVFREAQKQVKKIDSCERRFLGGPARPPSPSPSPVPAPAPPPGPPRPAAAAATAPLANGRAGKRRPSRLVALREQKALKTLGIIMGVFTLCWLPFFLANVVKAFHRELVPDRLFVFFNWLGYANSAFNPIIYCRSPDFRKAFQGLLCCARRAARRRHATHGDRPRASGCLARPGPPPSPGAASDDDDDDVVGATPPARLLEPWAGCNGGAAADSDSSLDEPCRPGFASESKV

Compound	IC50 [1]	IC50 (Cannabinoid receptor 1)	IC50 [2]	IC50 ([3]; cho-k1)	IC50 (Melanocortin receptor 5)	IC50 [4]	IC50 ([3]; read-out: IC50) [nM]	Ki ([3]; read-out: Ki) [nM]	Ki [1]	Ki (Cannabinoid receptor 1)	IC50 ([2]; read-out: IC50) [nM]	Ki ([2]; read-out: Ki) [nM]	Ki ([3]; cho-k1)	Ki (Melanocortin receptor 5)	Ki [4]
COC(=O)C1=C(C)NC(C)=C(C(=O)OCC(C)C)C1c1ccccc1[N+](=O)[O-] (stereo not drawn) [NISOLDIPINE]	Not Active	Not Active	Not Active	Not Active	Not Active	Not Active	–	–	–	–	–	–	–	–	–
CCOC(=O)C1=C(C)NC(C)=C(C(=O)OC)C1c1cccc([N+](=O)[O-])c1 (stereo not drawn) [NITRENDIPINE]	Not Active	Not Active	Not Active	Not Active	Not Active	Not Active	–	–	–	–	–	–	–	–	–
C#C[C@]1(OC(C)=O)CC[C@H]2[C@@H]3CCC4=CC(=O)CC[C@@H]4[C@H]3CC[C@@]21C [NORETHINDRONE ACETATE]	Not Active	Not Active	Not Active	Not Active	Not Active	Not Active	–	–	–	–	–	–	–	–	–
COc1ccc2[nH]c([S+]([O-])Cc3ncc(C)c(OC)c3C)nc2c1 (stereo not drawn) [OMEPRAZOLE]	Not Active	Not Active	Not Active	Not Active	Not Active	Not Active	–	–	–	–	–	–	–	–	–
Cc1nccn1CC1CCc2c(c3ccccc3n2C)C1=O (stereo not drawn) [ONDANSETRON]	Not Active	Not Active	Not Active	–	Not Active	Not Active	717	456	–	–	–	–	–	–	–
CCn1cc(C(=O)O)c(=O)c2cc(F)c(N3CCN(C)CC3)cc21 [PEFLOXACIN]	Not Active	Not Active	Not Active	Not Active	Not Active	Not Active	–	–	–	–	–	–	–	–	–
CCCCOc1ccc(OCCCN2CCOCC2)cc1 [PRAMOXINE]	Not Active	Not Active	Not Active	Not Active	Not Active	Not Active	–	–	–	–	–	–	–	–	–
O=C(C1CCCCC1)N1CC(=O)N2CCc3ccccc3C2C1 (stereo not drawn) [PRAZIQUANTEL]	Not Active	Not Active	Not Active	Not Active	Not Active	Not Active	–	–	–	–	–	–	–	–	–
CCN(CC)CCOC(=O)c1ccc(N)cc1 [PROCAINE]	Not Active	Not Active	Not Active	Not Active	Not Active	Not Active	–	–	–	–	–	–	–	–	–
CCCN(CCC)C(=O)C(CCC(=O)O)NC(=O)c1ccccc1 (stereo not drawn) [PROGLUMIDE]	Not Active	Not Active	Not Active	Not Active	Not Active	Not Active	–	–	–	–	–	–	–	–	–
NC(=O)c1cnccn1 [PYRAZINAMIDE]	Not Active	Not Active	Not Active	Not Active	Not Active	Not Active	–	–	–	–	–	–	–	–	–
OC(CCN1CCCCC1)(c1ccccc1)C1CCCCC1 (stereo not drawn) [TRIHEXYPHENIDYL]	Not Active	Not Active	Not Active	Not Active	Not Active	Not Active	–	–	–	–	–	–	–	–	–
Cc1cc2cc3c(C)cc(=O)oc3c(C)c2o1 [TRIOXSALEN]	Not Active	Not Active	Not Active	Not Active	Not Active	Not Active	–	–	–	–	–	–	–	–	–
CCCC(CCC)C(=O)O [VALPROIC ACID]	Not Active	Not Active	Not Active	Not Active	Not Active	Not Active	–	–	–	–	–	–	–	–	–
CCC1=C[C@@H]2CN(C1)Cc1c([nH]c3ccccc13)[C@@](C(=O)OC)(c1cc3c(cc1OC)N(C)[C@H]1[C@@](O)(C(=O)OC)[C@H](OC(C)=O)[C@]4(CC)C=CCN5CC[C@]31[C@@H]54)C2 [VINORELBINE]	Not Active	Not Active	Not Active	Not Active	Not Active	Not Active	–	–	–	–	–	–	–	–	–
CADMIUM DICHLORIDE	Not Active	Not Active	–	Not Active	Not Active	Not Active	–	–	Not Active	Not Active	6920	2590	Not Active	Not Active	Not Active

Reference: ChEMBL document CHEMBL1909046, “DrugMatrix in vitro pharmacology data”
